Laboratory results taken from US20040082635A1, “Fused cyclic compounds and medicinal use thereof” (priority 2001, published 2004).
pIC50: −log10 of the molar value. Counter-ions that a name gives are not always drawn. Like-named read-outs stand apart in the source and are kept apart here.

Target: T1, HCV polymerase (Hepatitis C virus genotype 1b, UniProt P26663)
T1 construct: a region encoding NS5B (591 amino acids; J Virol 1991 Mar, 65(3), 1105-13) was amplified by PCR; 6 His (N); made in house; host or cells: Escherichia coli
Assay: biochemical

[1] = read-out: HCV polymerase inhibitory activity IC50

T1 sequence (P26663 2420-3010): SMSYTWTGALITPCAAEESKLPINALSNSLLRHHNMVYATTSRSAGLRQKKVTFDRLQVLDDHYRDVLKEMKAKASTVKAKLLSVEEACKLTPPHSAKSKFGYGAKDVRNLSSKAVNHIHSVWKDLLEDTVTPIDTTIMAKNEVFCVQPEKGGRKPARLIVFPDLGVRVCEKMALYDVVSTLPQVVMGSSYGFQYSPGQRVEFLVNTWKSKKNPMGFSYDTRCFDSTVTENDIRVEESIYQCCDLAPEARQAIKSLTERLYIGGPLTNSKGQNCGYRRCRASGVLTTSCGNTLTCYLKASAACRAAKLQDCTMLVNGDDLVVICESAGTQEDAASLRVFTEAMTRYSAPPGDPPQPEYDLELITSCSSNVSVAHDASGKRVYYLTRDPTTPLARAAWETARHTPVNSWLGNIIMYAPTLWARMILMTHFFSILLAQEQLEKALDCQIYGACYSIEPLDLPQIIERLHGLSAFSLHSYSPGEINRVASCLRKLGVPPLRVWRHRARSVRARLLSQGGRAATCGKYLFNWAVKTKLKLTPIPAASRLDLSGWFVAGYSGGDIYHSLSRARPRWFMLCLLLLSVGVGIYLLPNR

Compound	pIC50 [1]	pIC50 (HCV polymerase inhibitory activity IC50)
O=C(O)c1ccc2c(c1)nc(-c1ccc(OCc3cc(N4CCCCC4=O)ccc3-c3ccc(Cl)cc3)cc1F)n2C1CCCCC1 [Example 371, 2-{4-[2-(4-chlorophenyl)-5-(2-oxopiperidin-1-yl)benzyloxy]-2-fluorophenyl}-1-cyclohexylbenzimidazole-5-carboxylic acid hydrochloride]	7.82	–
CCNC(=O)c1ccc(-c2ccc(Cl)cc2)c(COc2ccc(-c3nc4cc(C(=O)O)ccc4n3C3CCCCC3)c(F)c2)c1 [Example 390, 2-{4-[2-(4-chlorophenyl)-5-(ethylcarbamoyl)benzyloxy]-2-fluorophenyl}-1-cyclohexylbenzimidazole-5-carboxylic acid hydrochloride]	7.85	–
CNc1nc(Oc2ccc(-c3nc4cc(C(=O)O)ccc4n3C3CCCCC3)cc2)nc(-c2cccc(Cl)c2)n1 [Example 236, 2-{4-[2-(3-chlorophenyl)-4-methylamino-1,3,5-triazin-6-yloxy]phenyl}-1-cyclohexylbenzimidazole-5-carboxylic acid trifluoroacetate]	7.12	–
Nc1ccc(-c2ccc(Cl)cc2)c(COc2ccc(-c3nc4cc(C(=O)O)ccc4n3C3CCCCC3)cc2)c1 [Example 308, 2-{4-[5-amino-2-(4-chlorophenyl)benzyloxy]phenyl}-1-cyclohexylbenzimidazole-5-carboxylic acid]	7.64	–
Cc1noc(C)c1COc1ccc(-c2nc3cc(C(=O)O)ccc3n2C2CCCC2)cc1 [Example 51, 1-cyclopentyl-2-{4-[(3,5-dimethyl-4-isoxazolyl)methoxy]phenyl}-benzimidazole-5-carboxylic acid]	6.00	–
O=C1CCN(C(=O)c2ccc(-c3ccc(Cl)cc3)c(COc3ccc(-c4nc5cc(C(=O)O)ccc5n4C4CCCCC4)cc3)c2)CC1 [Example 328, 2-{4-[2-(4-chlorophenyl)-5-(4-oxopiperidinocarbonyl)-benzyloxy]phenyl}-1-cyclohexylbenzimidazole-5-carboxylic acid hydrochloride]	–	7.82
COc1ccc(-c2ccc(Cl)cc2)c(COc2ccc(-c3nc4cc(C(=O)O)ccc4n3C3CCSCC3)c(F)c2)c1 [Example 276, 2-{4-[2-(4-chlorophenyl)-5-methoxybenzyloxy]-2-fluorophenyl}-1-(4-tetrahydrothiopyranyl)benzimidazole-5-carboxylic acid]	7.64	–
CC(C)NC(=O)Nc1ccc(-c2ccc(Cl)cc2)c(COc2ccc(-c3nc4cc(C(=O)O)ccc4n3C3CCCCC3)c(F)c2)c1 [Example 395, 2-{4-[2-(4-chlorophenyl)-5-{(isopropylcarbamoyl)amino}benzyloxy]-2-fluorophenyl}-1-cyclohexylbenzimidazole-5-carboxylic acid hydrochloride]	7.80	–
O=C(O)c1ccc2c(c1)nc(-c1ccc(OCc3cc(Cl)ccc3-c3cccc(Cl)c3)cc1)n2C1CCCCC1 [Example 169, 2-{4-[3-chloro-6-(3-chlorophenyl)benzyloxy]phenyl}-1-cyclohexylbenzimidazole-5-carboxylic acid]	6.82	–
CN(C)C(=O)COCc1nc(-c2ccc(F)cc2)c(COc2ccc(-c3nc4cc(C(=O)O)ccc4n3C3CCCCC3)cc2)s1 [Example 426, 2-{4-[{2-[{(dimethylcarbamoyl)methoxy}methyl]-4-(4-fluorophenyl)thiazol-5-yl}methoxy]phenyl}-1-cyclohexylbenzimidazole-5-carboxylic acid hydrochloride]	7.28	–
CCNC(=O)Nc1ccc(-c2ccc(Cl)cc2)c(COc2ccc(-c3nc4cc(C(=O)O)ccc4n3C3CCCCC3)c(F)c2)c1 [Example 394, 2-{4-[2-(4-chlorophenyl)-5-{(ethylcarbamoyl)amino}benzyloxy]-2-fluorophenyl}-1-cyclohexylbenzimidazole-5-carboxylic acid hydrochloride]	7.72	–
O=C(O)c1ccc2c(c1)nc(-c1ccc(OCc3cc(OCC(=O)N4CCC(O)CC4)ccc3-c3ccc(Cl)cc3)cc1)n2C1CCCCC1 [Example 343]	7.77	–
CC(C)(C)c1ccc(COc2ccc(-c3nc4cc(C(=O)O)ccc4n3C3CCCC3)cc2)cc1 [Example 43, 2-[4-(4-tert-butylbenzyloxy)phenyl]-1-cyclopentylbenzimidazole-5-carboxylic acid]	6.24	–
O=C(O)c1ccc2c(c1)nc(-c1ccc(Oc3cccc(OCc4cccc(Cl)c4)c3)cc1)n2C1CCCCC1 [Example 200, 2-{4-[3-(3-chlorobenzyloxy)phenoxy]phenyl}-1-cyclohexylbenzimidazole-5-carboxylic acid]	7.00	–
O=C(O)c1ccc2c(c1)nc(-c1ccc(OCc3ccc(Cl)s3)cc1)n2C1CCCC1 [Example 46, 2-{4-[(2-chloro-5-thienyl)methoxy]phenyl}-1-cyclopentylbenzimidazole-5-carboxylic acid]	6.33	–
CN(C)C(=O)c1ccc(-c2ccc(C(=O)N(C)C)cc2COc2ccc(-c3nc4cc(C(=O)O)ccc4n3C3CCCCC3)cc2)cc1 [Example 273, 2-{4-[3-dimethylcarbamoyl-6-(4-dimethylcarbamoylphenyl)-benzyloxy]phenyl}-1-cyclohexylbenzimidazole-5-carboxylic acid]	7.39	–
O=C(O)c1ccc2c(c1)nc(-c1ccc(OCc3cc(C(=O)NC4CC4)ccc3-c3ccc(Cl)cc3)cc1F)n2C1CCCCC1 [Example 377, 2-{4-[2-(4-chlorophenyl)-5-(cyclopropylcarbamoyl)benzyloxy]-2-fluorophenyl}-1-cyclohexylbenzimidazole-5-carboxylic acid hydrochloride]	7.92	–
O=C(O)c1ccc2c(c1)nc(-c1ccc(OCc3cc(C(=O)N4CCCC4)ccc3-c3ccc(Cl)cc3)cc1)n2C1CCSCC1 [Example 417, 2-{4-[2-(4-chlorophenyl)-5-(pyrrolidin-1-ylcarbonyl)benzyloxy]phenyl}-1-(tetrahydrothiopyran-4-yl)benzimidazole-5-carboxylic acid hydrochloride]	7.54	–
O=C(O)c1ccc2c(c1)nc(-c1ccc(OCc3cccc(Cl)c3)cc1)n2C1CCCC1 [Example 55, 2-[4-(3-chlorobenzyloxy)phenyl]-1-cyclopentylbenzimidazole-5-carboxylic acid]	6.44	–
O=C(O)c1ccc2c(c1)nc(-c1ccc(OCc3cccnc3-c3ccc(Cl)cc3)cc1)n2C1CCCCC1 [Example 234, 2-{4-[{2-(4-chlorophenyl)-3-pyridyl}methoxy]phenyl}-1-cyclohexylbenzimidazole-5-carboxylic acid dihydrochloride]	7.66	–
O=C(O)c1ccc2c(c1)nc(-c1ccc(Oc3cccc(OCc4ccc(F)cc4)c3)cc1)n2C1CCCCC1 [Example 202, 1-cyclohexyl-2-{4-[3-(4-fluorobenzyloxy)phenoxy]phenyl}-benzimidazole-5-carboxylic acid]	7.02	–
COC1CCN(C(=O)c2ccc(-c3ccc(Cl)cc3)c(COc3ccc(-c4nc5cc(C(=O)O)ccc5n4C4CCCCC4)cc3)c2)CC1 [Example 333, 2-{4-[2-(4-chlorophenyl)-5-(4-methoxypiperidinocarbonyl)-benzyloxy]phenyl}-1-cyclohexylbenzimidazole-5-carboxylic acid hydrochloride]	7.80	–
NC(=O)COCc1nc(-c2ccc(F)cc2)c(COc2ccc(-c3nc4cc(C(=O)O)ccc4n3C3CCCCC3)cc2)s1 [Example 428, 2-{4-[{4-(4-fluorophenyl)-2-[(carbamoylmethoxy)methyl]thiazol-5-yl}methoxy]phenyl}-1-cyclohexylbenzimidazole-5-carboxylic acid hydrochloride]	7.59	–
